Experimental data published in patent US20100249050A1, “[…] AND USE THEREOF” (SHANDONG UNIVERSITY, priority 2008, published 2010).

Legend:
Conditions in all cases: for Inhibition rate of growth: 48-72 hrs
[1] = system: human liver cancer cell HepG2; assay: Antitumor activity test (MTT reduction / SRB protein staining), growth inhibition of HepG2; type: cell-based
From the text: (§1) Screening method: methyl-thiazol-tettazolium (MTT) reduction method and sulforhodamine B (SRB) protein staining method.
(§2) Cell strains: human liver cancer cell HepG2, human lung cancer cell A-549, and breast cancer cell MDA-MB-435.

[2] = system: human lung cancer cell A-549; assay: Antitumor activity test (MTT reduction / SRB protein staining), growth inhibition of A-549; type: cell-based
From the text: as §1, §2

[3] = system: breast cancer cell MDA-MB-435; assay: Antitumor activity test (MTT reduction / SRB protein staining), growth inhibition of MDA-MB-435; type: cell-based, human
From the text: as §1, §2

With `CC(=Cc1csc(C)n1)C1CC2OC2CCCC(C)C(O)C(C)C(=O)C(C)(C)C(OC2OC(CO)C(O)C2O)CC(=O)O1` (centres unmarked) [epothilone glycoside A-1] the IC50 ([1]; HepG2, 48-72 hrs) was 0.07 µM, the “Inhibition grade (no / weak / strong effect)” value ([1]; HepG2, at the concentration of 10^−6 M) was “strong inhibition” and the “Inhibition rate of growth” value ([1]; HepG2, concentration 10^−4 M) was 100. For the same molecule, the “Inhibition rate of growth” value ([1]; HepG2, concentration 10^−5 M) was 99.9, the “Inhibition rate of growth” value ([1]; HepG2, concentration 10^−6 M) was 93.3 and the “Inhibition rate of growth” value ([1]; HepG2, concentration 10^−7 M) was 41.5. For the same molecule, the “Inhibition rate of growth” value ([1]; HepG2, concentration 10^−8 M) was 15.7, the “Inhibition grade (no / weak / strong effect)” value ([2]; A-549, at the concentration of 10^−6 M) was “weak inhibition” and the “Inhibition rate of growth” value ([2]; A-549, concentration 10^−4 M) was 90.6. The “Inhibition rate of growth” value ([2]; A-549, concentration 10^−5 M) was 83.7, the “Inhibition rate of growth” value ([2]; A-549, concentration 10^−6 M) was 72.0 and the “Inhibition rate of growth” value ([2]; A-549, concentration 10^−7 M) was 0. The “Inhibition rate of growth” value ([2]; A-549, concentration 10^−8 M) was 0, the IC50 ([3]; MDA-MB-435, 48-72 hrs) was 2.07 µM and the “Inhibition grade (no / weak / strong effect)” value ([3]; MDA-MB-435, at the concentration of 10^−6 M) was “weak inhibition”. For the same molecule, the “Inhibition rate of growth” value ([3]; MDA-MB-435, concentration 1 μM) was 18.9, the “Inhibition rate of growth” value ([3]; MDA-MB-435, concentration 2 μM) was 55.0 and the “Inhibition rate of growth” value ([3]; MDA-MB-435, concentration 4 μM) was 76.1. For the same molecule, the “Inhibition rate of growth” value ([3]; MDA-MB-435, concentration 8 μM) was 84.6 and the “Inhibition rate of growth” value ([3]; MDA-MB-435, concentration 10 μM) was 98.2.
